Test results: ChEMBL document CHEMBL6177988, “Design, synthesis, biophysical and biological evaluation of original condensed pyrrolopyrimidine and pyrrolopyridine ligands as anti-SARS-CoV-2 agents targeting G4” (Eur J Med Chem, 2025)

Assays:
[1] = Selectivity index, ratio of CC50 for cytotoxicity against human A549 cells harboring ACE2-CI33 assessed as cell viability by celltiter glo assay to EC50 for antiviral activity against SARS-CoV-2 Wuhan infected in human A549 cells harboring ACE2-Cl33; type: toxicity, cell-based; settings: read-out: Ratio CC50/EC50
[2] = tested on: SARS-CoV-2; experiment: Antiviral activity against SARS-CoV-2 Wuhan infected in human A549 cells harboring ACE2-Cl33 at 0.1 MOI assessed as inhibition of viral replication pretreated with compounds for 2 hrs followed by infection for 1 hr and measured after 72 hrs post-infection by qRT-PCR analysis; type: functional, organism-based; settings: Severe acute respiratory syndrome coronavirus 2, Wuhan
[3] = Selectivity index, ratio of CC50 for cytotoxicity against human Caco-2 cells harboring ACE2-CI33 assessed as cell viability by celltiter glo assay to EC50 for antiviral activity against SARS-CoV-2 Wuhan infected in human A549 cells harboring ACE2-Cl33; type: toxicity, cell-based; settings: read-out: Ratio CC50/EC50
[4] = tested on: SARS-CoV-2; experiment: Antiviral activity against SARS-CoV-2 Wuhan infected in human Caco-2 cells harboring ACE2-Cl33 at 0.1 MOI assessed as inhibition of viral replication pretreated with compounds for 2 hrs followed by infection for 1 hr and measured after 72 hrs post-infection by qRT-PCR analysis; type: functional, organism-based; settings: Severe acute respiratory syndrome coronavirus 2, Wuhan
[5] = tested on: SARS-CoV-2; experiment: Antiviral activity against SARS-CoV-2 Delta B1.617.2 infected in human A549 cells harboring ACE2-Cl33 at 0.1 MOI assessed as inhibition of viral replication pretreated with compounds for 2 hrs followed by infection for 1 hr and measured after 72 hrs post-infection by qRT-PCR analysis; type: functional, organism-based; settings: Severe acute respiratory syndrome coronavirus 2, Delta B1.617.2, A549

Structure (SMILES) | selectivity ratio [1] | EC50 [2] | also measured
CN(C)CCCCCNCc1ccc(-c2cc3c(ccn3-c3ccccc3)c(-c3ccc(CNCCCCCN(C)C)cc3)n2)cc1 | 8.18 |  | 
CN(C)CCCCNCc1ccc(-c2cc(-c3ccc(CNCCCCN(C)C)cc3)c3ccn(-c4ccccc4)c3c2)cc1 | 1.88 | 528 nM | selectivity ratio [3]: 0.93; EC50 [4]: 787 nM; EC50 [5]: 681 nM
CN1CCN(CCCCNCc2ccc(-c3cc(-c4ccc(CNCCCCN5CCN(C)CC5)cc4)c4ccn(-c5ccccc5)c4c3)cc2)CC1 | 2.74 |  | 
CN(C)CCCCNCc1ccc(-c2nc(-c3ccc(CNCCCCN(C)C)cc3)c3ccn(-c4ccc(CNCCCCN(C)C)cc4)c3n2)cc1 | 6.67 |  | 
CN(C)CCCCNCc1ccc(-c2nc(-c3ccc(CNCCCCN(C)C)cc3)c3ncn(-c4ccccc4)c3n2)cc1 | ≥ 2.68 |  | 
CCN(CC)CCCCNCc1ccc(-c2cc3c(ccn3-c3ccccc3)c(-c3ccc(CNCCCCN(CC)CC)cc3)n2)cc1 | > 13.9 |  | 
CN(C)CCCCNCc1ccc(-c2cc3c(ccn3-c3ccccc3)c(-c3ccc(CNCCCCN(C)C)cc3)n2)cc1 | 2.18 |  | 
CN(C)CCCCNCc1ccc(-c2cn(-c3ccccc3)c3ncnc(-c4ccc(CNCCCCN(C)C)cc4)c23)cc1 | > 9.3 |  | 
CN(C)CCCCNCc1ccc(-c2ccc3ccc4ccc(-c5ccc(CNCCCCN(C)C)cc5)nc4c3n2)cc1 | > 1.09 | 9170 nM | 
CN1CCN(CCCCNCc2ccc(-c3ccc4ccc5ccc(-c6ccc(CNCCCCN7CCN(C)CC7)cc6)nc5c4n3)cc2)CC1 |  | > 10000 nM | 
CN(C)CCCNCc1ccc(-c2cn(-c3ccc(CNCCCN(C)C)cc3)c3ncnc(-c4ccc(CNCCCN(C)C)cc4)c23)cc1 | > 1.43 |  | 
CN(C)CCCCNCc1ccc(-c2cc(-c3ccc(CNCCCCN(C)C)cc3)c3ccn(-c4ccccc4)c3n2)cc1 | 7.38 |  | 
CN(C)CCCCNCc1ccc(-c2nc(-c3ccccc3)c3ccn(-c4ccc(CNCCCCN(C)C)cc4)c3n2)cc1 | 2.64 | 920 nM | 
CN(C)CCCNCc1ccc(-c2nc(-c3ccc(CNCCCN(C)C)cc3)c3ccn(-c4ccc(CNCCCN(C)C)cc4)c3n2)cc1 | > 14.6 | 436 nM | selectivity ratio [3]: ≥ 4.57; EC50 [4]: 1540 nM
CN(C)CCCCCNCc1ccc(-c2cc(-c3ccc(CNCCCCCN(C)C)cc3)c3ccn(-c4ccccc4)c3c2)cc1 | 2.35 | 1320 nM | selectivity ratio [3]: 1.88; EC50 [4]: 946 nM; EC50 [5]: 1280 nM
CN(C)CCCCNCc1ccc(-c2nc(-c3ccc(CNCCCCN(C)C)cc3)c3c(ccn3-c3ccccc3)n2)cc1 | > 15.1 |  | 
CCC(CC)COC(=O)[C@H](C)N[P@](=O)(OC[C@H]1O[C@@](C#N)(c2ccc3c(N)ncnn23)[C@H](O)[C@@H]1O)Oc1ccccc1 [REMDESIVIR] | > 1.18 |  | 
O=c1c(O)cc([C@H]2Oc3cc(O)cc(O)c3C[C@H]2O)cc2c([C@H]3Oc4cc(O)cc(O)c4C[C@H]3O)cc(O)c(O)c12 [THEAFLAVIN] | > 83.3 |  | 
